Data on 2 compounds can be found in patent publication EP0334551A1, “Anti-neoplastic formulations” (priority 1988, dated 1989).

Read-outs that look alike come from different tables or passages of the source.

For data set [1] the following is noted: aqueous solution of unlyophilised carboplatin in sterile water, at room temperature. On the procedure: The solutions obtained were filled into amber moulded 20 ml vials and sealed with Teflon-lined caps, West 541. The above two solutions were stored at room temperature for 15 months, then tested for stability. […] The solution was filled into 20 ml amber moulded vials and sealed with grey chlorobutyl rubber caps. […] Each solution was filled into 6 ml clear drawn vials and sealed with Teflon lined caps.

For data set [2] the following is noted: in all the infusion fluids studied; cited from earlier work.
The conditions of data set [3]: reconstituted solutions of the lyophilised powder, cited from earlier work.

Turning to `[NH2][Pt]1([NH2])[O]C(=O)C2(CCC2)C(=O)[O]1` [carboplatin, cis-Diamine[1,1-cyclobutanedicarboxylato-(2-)-O,O′]platinum [SP-4-27]], the “stable (time)” value in data set [1] was “at least 18 months”; in data set [2], 24 h; in data set [3] (at room temperature), 8 h; in data set [3] (under refrigeration), 24 h.
As for iproplatin, the “stable (time)” value in data set [2] is 24 h.
